Reference: article PMC4515785 (Journal of Medicinal Chemistry, 2015)
Marks after values point to notes of the source that are not given here. Values belong to the compound of their own block, whether it stands above or below them.

Tests used:
[1] = system: T. brucei; settings: read-out: T. brucei EC50; previously reported quinazoline analogs; cited from earlier work
[2] = system: P. falciparum D6; test: Plasmodium falciparum SYBR Green fluorescence; format: cell-based; settings: D6, drug sensitive strain; for EC50: read-out: P. falciparum D6 EC50
[3] = system: T. cruzi Tulahuen strain expressing β-galactosidase; test: Trypanosoma cruzi intracellular amastigote assay in 3T3 cells; format: cell-based; settings: for T. cruzi EC50 / EC50: intracellular amastigotes in 3T3 cells, 96 h; for EC50: read-out: T. cruzi EC50
[4] = plasma protein binding; format: in vitro ADME
[5] = Human liver microsomes intrinsic clearance; format: in vitro ADME
[6] = system: L. major promastigotes; test: Leishmania major promastigote assay; format: cell-based; settings: for EC50: read-out: L. major EC50 Promast
[7] = system: HepG2 cells; test: HepG2 toxicity assay; format: cell-based; settings: 48 h, MTT
[8] = male rat hepatocytes intrinsic clearance; format: in vitro ADME

Compound: CN1CCCN(S(=O)(=O)c2ccc(-c3ccc4ncnc(Nc5ccc(OCc6cccc(F)c6)c(Cl)c5)c4c3)cc2)CC1 [compound 4]
EC50 [1]: 0.81 µM

Compound: CN1CCCN(S(=O)(=O)c2ccc(-c3ccc4c(Nc5ccc(OCc6cccc(F)c6)c(Cl)c5)nncc4c3)cc2)CC1 [compound 76, N-(3-Chloro-4-((3-fluorobenzyl)oxy)phenyl)-6-(4-((4-methyl-1,4-diazepan-1-yl)sulfonyl)phenyl)phthalazin-1-amine]
P. falciparum D6 EC50 [2]: equipotent to 5

Compound: CN1CCN(S(=O)(=O)c2ccc(-c3ccc4ncnc(Nc5ccc(OCc6cccc(F)c6)c(Cl)c5)c4c3)cc2)CC1 [compound 5]
EC50 [1]: 0.53 µM

Compound: CN1CCN(S(=O)(=O)c2ccc(-c3ccc4c(Nc5ccc(OCc6cccc(F)c6)c(Cl)c5)ccnc4c3)cc2)CC1 [compound 50, N-(3-Chloro-4-((3-fluorobenzyl)oxy)phenyl)-7-(4-((4-methylpiperazin-1-yl)sulfonyl)phenyl)quinolin-4-amine]
T. cruzi EC50 [3]: submicromolar potency
plasma protein binding (% free) [4]: <1 % free
microsomal CLint [5]: 143 µL/min/mg

Compound: N-(4-(Benzyloxy)-3-chlorophenyl)-6-(4-(morpholinosulfonyl)phenyl)thieno[2,3-d]pyrimidin-4-amine [compound 88]
EC50 [3]: > 50 µM
EC50 [6]: > 15 µM
EC50 [2]: 0.22 µM
HepG2 TC50 [7]: >15 µM

Compound: N-(3-Chloro-4-((3-fluorobenzyl)oxy)phenyl)-6-(3-morpholinophenyl)thieno[2,3-d]pyrimidin-4-amine [compound 86]
EC50 [3]: 2.2 µM
EC50 [6]: > 15 µM
EC50 [2]: 0.52 µM
HepG2 TC50 [7]: >15 µM

Compound: O=S(=O)(c1ccc(-c2ccc3ncnc(Nc4ccc(OCc5ccccc5)c(Cl)c4)c3c2)cc1)N1CCOCC1 [compound 3]
T. cruzi % inh at 10 μM ([3]; 10 μM): (9.5)* %

Compound: N-(3-Chloro-4-((3-fluorobenzyl)oxy)phenyl)-6-(4-((4-methyl-1,4-diazepan-1-yl)sulfonyl)phenyl)thieno[2,3-d]pyrimidin-4-amine [compound 92]
EC50 [3]: 15 µM
HepG2 TC50 [7]: >15 µM

plasma protein binding (% free) [4]: <1 % free
microsomal CLint [5]: 99.3 µL/min/mg
Compound: CN1CCCN(S(=O)(=O)c2ccc(-c3ccc4c(Nc5ccc(OCc6cccc(F)c6)c(Cl)c5)cnnc4c3)cc2)CC1 [compound 68, N-(3-Chloro-4-((3-fluorobenzyl)oxy)phenyl)-7-(4-((4-methyl-1,4-diazepan-1-yl)sulfonyl)phenyl)cinnolin-4-amine]

Compound: CN1CCN(S(=O)(=O)c2ccc(-c3ccc4nccc(Nc5ccc(OCc6cccc(F)c6)c(Cl)c5)c4c3)cc2)CC1 [compound 49, N-(3-Chloro-4-((3-fluorobenzyl)oxy)phenyl)-6-(4-((4-methylpiperazin-1-yl)sulfonyl)phenyl)quinolin-4-amine]
P. falciparum D6 EC50 [2]: complete loss in activity

Compound: CN1CCCN(S(=O)(=O)c2ccc(-c3ccc4ccnc(Nc5ccc(OCc6cccc(F)c6)c(Cl)c5)c4c3)cc2)CC1 [compound 59, N-(3-Chloro-4-((3-fluorobenzyl)oxy)phenyl)-7-(4-((4-methyl-1,4-diazepan-1-yl)sulfonyl)phenyl)isoquinolin-1-amine]
fold less potent against T. cruzi ([3]; compared with the quinazoline 4): 10 fold

Compound: CN1CCCN(S(=O)(=O)c2ccc(-c3ccc4nccc(Nc5ccc(OCc6cccc(F)c6)c(Cl)c5)c4c3)cc2)CC1 [compound 51, N-(3-Chloro-4-((3-fluorobenzyl)oxy)phenyl)-6-(4-((4-methyl-1,4-diazepan-1-yl)sulfonyl)phenyl)quinolin-4-amine]
T. cruzi EC50 [3]: submicromolar potency

Compound: N-(3-Chloro-4-((3-fluorobenzyl)oxy)phenyl)-6-(4-((4-methylpiperazin-1-yl)sulfonyl)phenyl)thieno[2,3-d]pyrimidin-4-amine [compound 90]
EC50 [3]: 48 µM
EC50 [6]: > 15 µM
EC50 [2]: 0.043 µM
HepG2 TC50 [7]: >15 µM

Compound: CN1CCCN(S(=O)(=O)c2ccc(-c3ccc4ncc(C#N)c(Nc5ccc(OCc6cccc(F)c6)c(Cl)c5)c4c3)cc2)CC1 [compound 83, 4-((3-Chloro-4-((3-fluorobenzyl)oxy)phenyl)amino)-6-(4-((4-methyl-1,4-diazepan-1-yl)sulfonyl)phenyl)quinoline-3-carbonitrile]
fold increase in T. cruzi potency over matched des-fluoro analog ([3]; 83 vs 84): 10 fold
fold improvement in T. cruzi potency over matched quinazoline analog 4 ([3]; vs 4): 5 fold
plasma protein binding (% free) [4]: <1 % free
microsomal CLint [5]: 152 µL/min/mg

L. major EC50 Promast [6]: complete loss in activity
Compound: O=S(=O)(c1ccc(-c2ccc3ccnc(Nc4ccc(OCc5ccccc5)c(Cl)c4)c3c2)cc1)N1CCOCC1 [compound 55, N-(4-(Benzyloxy)-3-chlorophenyl)-7-(4-(morpholinosulfonyl)phenyl)isoquinolin-1-amine]

plasma protein binding (% free) [4]: <1 % free
microsomal CLint [5]: 78.9 µL/min/mg
Compound: O=S(=O)(c1ccc(-c2ccc3nccc(Nc4ccc(OCc5ccccc5)c(Cl)c4)c3c2)cc1)N1CCOCC1 [compound 47, N-(4-(Benzyloxy)-3-chlorophenyl)-6-(4-(morpholinosulfonyl)phenyl)quinolin-4-amine]

Compound: N-(3-Chloro-4-((3-fluorobenzyl)oxy)phenyl)-6-(4-((4-methyl-1,4-diazepan-1-yl)sulfonyl)phenyl)thieno[3,2-d]pyrimidin-4-amine [compound 91]
EC50 [3]: > 50 µM
HepG2 TC50 [7]: >15 µM

Compound: N-(3-Chloro-4-((3-fluorobenzyl)oxy)phenyl)-6-(4-((4-methylpiperazin-1-yl)sulfonyl)phenyl)thieno[3,2-d]pyrimidin-4-amine [compound 89]
EC50 [3]: 5.5 µM
EC50 [6]: 3.4 µM
EC50 [2]: 0.021 µM
HepG2 TC50 [7]: >15 µM

Compound: CN1CCCN(S(=O)(=O)c2ccc(-c3ccc4c(Nc5ccc(OCc6cccc(F)c6)c(Cl)c5)ccnc4c3)cc2)CC1 [compound 52, N-(3-Chloro-4-((3-fluorobenzyl)oxy)phenyl)-7-(4-((4-methyl-1,4-diazepan-1-yl)sulfonyl)phenyl)quinolin-4-amine]
T. cruzi EC50 [3]: submicromolar potency

plasma protein binding (% free) [4]: <1 % free
microsomal CLint [5]: 63 µL/min/mg
hepatocyte CLint [8]: 44.5 µL/min/1e6 cells
Compound: Fc1cccc(COc2ccc(Nc3ncnc4ccc(-c5cccc(N6CCOCC6)c5)cc34)cc2Cl)c1 [compound 1]

Compound: N-(4-(Benzyloxy)-3-chlorophenyl)-6-(4-(morpholinosulfonyl)phenyl)thieno[3,2-d]pyrimidin-4-amine [compound 87]
EC50 [3]: > 50 µM
EC50 [6]: > 3 µM
EC50 [2]: 0.62 µM
HepG2 TC50 [7]: >5 µM

Compound: N-(3-Chloro-4-((3-fluorobenzyl)oxy)phenyl)-6-(3-morpholinophenyl)thieno[3,2-d]pyrimidin-4-amine [compound 85]
EC50 [3]: > 50 µM
EC50 [6]: > 15 µM
EC50 [2]: 0.86 µM
HepG2 TC50 [7]: >15 µM
